We go through 23 molecules from patent US8940756B2, “Dihydronaphthyridines and related compounds useful as kinase inhibitors for the treatment of proliferative diseases” (Deciphera Pharmaceuticals, Inc., priority 2012, dated 2015).

The target in assay [1] is Phospho-KIT (Tyr719) in GIST430 cells (Homo sapiens, UniProt P10721). The assay is described as follows: GIST430 KIT Western Blot. The assay is classed as cell-based. Conditions: 4 hours, read-out: pKIT suppression by western blot analysi GIST430. As to the method: (§1) GIST48, GIST430, and GIST882 cells were obtained from J. Fletcher (Brigham and Women's Hospital, Boston, Mass.). GIST T1 cells were obtained from B. Rubin (Cleveland Clinic, Cleveland, Ohio) and Professor Takahiro Taguchi (Kochi Medical School, Nankoku, Kochi, Japan). […] GIST430 cells were grown in Ham's F10 medium supplemented with 15% characterized fetal bovine serum (Invitrogen, Carlsbad, Calif.), 30 mg/L bovine pituitary extract (BD Biosciences, San Jose, Calif.), 0.5% Mito+ serum extender (BD Biosciences, San Jose, Calif.), 1 unit/mL penicillin G, 1 μg/ml streptomycin, and 0.29 mg/mL L-glutamine at 37° C., 5% CO2, 95% humidity. GIST T1 cells were grown in DMEM medium supplemented with 10% characterized fetal bovine serum (Invitrogen, Carlsbad, Calif.), 1 unit/mL penicillin G, 1 ng/ml streptomycin, and 0.29 mg/mL L-glutamine at 37° C., 5% CO2, and 95% humidity. Cells were allowed to expand until reaching 70-95% confluence at which point they were subcultured or harvested for assay use.
(§2) One hundred fifty thousand cells were added per well in a 24-well tissue-culture treated plate. Cells were then incubated overnight at 37° C., 5% CO2, 95% humidity. Medium was aspirated, cells were washed with PBS, and serum-free Ham's F10 medium was added. A serial dilution of test compound was added to plates containing cells and plates were incubated for 4 hours at 37° C., 5% CO2, 95% humidity. Cells were washed with PBS, then lysed. Cell lysates were separated by SDS-PAGE and transferred to PVDF. Phospho-KIT (Tyr719) was detected using an antibody from Cell Signaling Technology (Beverly, Mass.), ECL Plus detection reagent (GE Healthcare, Piscataway, N.J.) and a Molecular Devices Storm 840 phosphorimager in fluorescence mode. Blots were stripped and probed for total KIT using an antibody from Santa Cruz Biotech (Santa Cruz, Calif.). IC50 values were calculated using Prism software (Graphpad, San Diego, Calif.).
(A western blot detects proteins with antibodies after separation by electrophoresis.)

The target in assay [2] is Phospho-KIT (Tyr719) in GIST48 cells (Homo sapiens, UniProt P10721). As to the kind of experiment: GIST48 KIT Western Blot. The conditions noted are these: 4 hours, read-out: pKIT suppression by western blot analysi GIST48. It counts as cell-based. As to the method: as §1
as §2, with “Two” for “One”, “RPMI1640” for “Ham's F10”

Molecules are shown by their SMILES. pIC50: −log10 of the molar value.

Sequence of Phospho-KIT (Tyr719) in GIST48 cells (P10721 whole entry V560D/D820A, form open): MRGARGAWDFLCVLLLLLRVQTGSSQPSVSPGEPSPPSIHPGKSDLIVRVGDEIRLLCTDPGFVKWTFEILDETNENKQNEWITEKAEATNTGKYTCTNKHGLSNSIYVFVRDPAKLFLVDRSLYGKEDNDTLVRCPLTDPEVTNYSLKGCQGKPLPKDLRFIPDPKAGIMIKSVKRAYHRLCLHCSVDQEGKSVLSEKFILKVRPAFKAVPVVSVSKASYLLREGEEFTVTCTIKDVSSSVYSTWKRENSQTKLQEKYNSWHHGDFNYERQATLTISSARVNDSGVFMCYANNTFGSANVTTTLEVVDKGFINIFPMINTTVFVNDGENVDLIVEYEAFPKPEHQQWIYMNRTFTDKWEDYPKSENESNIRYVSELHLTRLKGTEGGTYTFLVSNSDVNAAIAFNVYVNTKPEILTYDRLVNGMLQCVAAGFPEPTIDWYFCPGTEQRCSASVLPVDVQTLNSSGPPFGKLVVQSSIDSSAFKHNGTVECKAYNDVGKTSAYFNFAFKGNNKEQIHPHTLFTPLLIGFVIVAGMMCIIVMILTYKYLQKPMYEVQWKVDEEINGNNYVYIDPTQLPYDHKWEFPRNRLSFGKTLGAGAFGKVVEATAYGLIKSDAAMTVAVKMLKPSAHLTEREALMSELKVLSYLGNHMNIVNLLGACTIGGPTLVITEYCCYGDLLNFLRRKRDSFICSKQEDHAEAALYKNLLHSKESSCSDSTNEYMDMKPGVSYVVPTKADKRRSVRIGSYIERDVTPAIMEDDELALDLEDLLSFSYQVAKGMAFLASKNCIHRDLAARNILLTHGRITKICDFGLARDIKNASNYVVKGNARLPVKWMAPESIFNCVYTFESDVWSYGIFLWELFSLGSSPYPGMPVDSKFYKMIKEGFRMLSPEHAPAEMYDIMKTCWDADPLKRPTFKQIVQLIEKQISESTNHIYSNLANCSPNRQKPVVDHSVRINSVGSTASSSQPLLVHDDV
Sequence of Phospho-KIT (Tyr719) in GIST430 cells (P10721 with tags, fused parts or gaps DEL560-576/V654A, form open): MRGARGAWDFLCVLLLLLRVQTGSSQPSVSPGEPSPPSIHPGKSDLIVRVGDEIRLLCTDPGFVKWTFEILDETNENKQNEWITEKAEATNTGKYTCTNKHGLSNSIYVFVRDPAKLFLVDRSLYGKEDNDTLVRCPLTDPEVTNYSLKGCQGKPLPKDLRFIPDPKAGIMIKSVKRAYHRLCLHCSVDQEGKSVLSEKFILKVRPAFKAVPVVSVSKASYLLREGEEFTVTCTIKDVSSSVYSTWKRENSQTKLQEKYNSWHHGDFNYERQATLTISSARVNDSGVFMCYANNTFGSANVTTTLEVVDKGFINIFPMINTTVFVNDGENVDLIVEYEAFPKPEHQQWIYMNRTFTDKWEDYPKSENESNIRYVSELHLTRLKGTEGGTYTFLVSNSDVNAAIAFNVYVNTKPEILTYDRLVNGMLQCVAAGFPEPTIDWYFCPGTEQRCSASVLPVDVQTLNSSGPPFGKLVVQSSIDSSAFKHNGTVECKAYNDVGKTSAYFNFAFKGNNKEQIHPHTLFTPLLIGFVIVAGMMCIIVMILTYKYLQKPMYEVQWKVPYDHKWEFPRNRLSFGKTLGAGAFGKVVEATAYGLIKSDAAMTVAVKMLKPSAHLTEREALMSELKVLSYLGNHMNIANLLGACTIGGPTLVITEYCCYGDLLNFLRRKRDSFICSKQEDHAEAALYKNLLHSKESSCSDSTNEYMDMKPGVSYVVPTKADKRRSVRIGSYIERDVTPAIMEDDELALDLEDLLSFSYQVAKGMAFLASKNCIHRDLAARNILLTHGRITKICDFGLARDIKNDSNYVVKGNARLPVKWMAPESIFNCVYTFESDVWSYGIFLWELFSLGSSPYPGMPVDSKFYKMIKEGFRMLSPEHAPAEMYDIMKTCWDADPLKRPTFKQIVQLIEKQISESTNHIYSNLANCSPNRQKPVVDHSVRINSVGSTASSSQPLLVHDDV

For `CCn1c(=O)c(-c2cc(NC(=O)Nc3cc(F)cc(F)c3)c(F)cc2Cl)cc2cnc(NC(C)=O)cc21` [Example 67, N-(3-(2-chloro-5-(3-(3,5-difluorophenyl)ureido)-4-fluorophenyl)-1-ethyl-2-oxo-1,2-dihydro-1,6-naphthyridin-7-yl)acetamide], the pIC50 in assay [1] and in assay [2] was > 8.00 throughout.
For `CCn1c(=O)c(-c2cc(NC(=O)Nc3ccccc3)c(F)cc2F)cc2cnc(NC)cc21` [Example 16, 1-(5-(1-ethyl-7-(methylamino)-2-oxo-1,2-dihydro-1,6-naphthyridin-3-yl)-2,4-difluorophenyl)-3-phenylurea], the pIC50 in assay [1] and in assay [2] was 6.00 to 7.00 each time.
For the molecule `CCn1c(=O)c(-c2cc(NC(=O)Nc3ccccc3)c(F)cc2Cl)cc2cnc(NC(=O)N3CC(N(C)C)C3)cc21` [Example 102, N-(3-(2-chloro-4-fluoro-5-(3-phenylureido)phenyl)-1-ethyl-2-oxo-1,2-dihydro-1,6-naphthyridin-7-yl)-3-(dimethylamino)azetidine-1-carboxamide], the pIC50 in assay [1] and in assay [2] was 7.00 to 8.00 in each case.
For the molecule `CCn1c(=O)c(-c2cc(NC(=O)Nc3cccc(F)c3)c(F)cc2Cl)cc2cnc(NC)cc21` [Example 24, 1-[4-chloro-5-(1-ethyl-7-methylamino-2-oxo-1,2-dihydro-[1,6]naphthyridin-3-yl)-2-fluoro-phenyl]-3-(3-fluoro-phenyl)-urea], the pIC50 is > 8.00 in assay [1] and 7.00 to 8.00 in assay [2].
The corresponding values for `CCn1c(=O)c(-c2cc(NC(=O)Nc3ccccc3)c(F)cc2Br)cc2cnc(NCCOC)cc21` [Example 51, 1-(4-bromo-5-(1-ethyl-7-(2-methoxyethylamino)-2-oxo-1,2-dihydro-1,6-naphthyridin-3-yl)-2-fluorophenyl)-3-phenylurea] are 7.00 to 8.00 and 6.00 to 7.00.
The corresponding values for `CCn1c(=O)c(-c2cc(NC(=O)Nc3cccc4ccccc34)c(F)cc2Cl)cc2cnc(NC)cc21` [Example 6, 1-(4-chloro-5-(1-ethyl-7-(methylamino)-2-oxo-1,2-dihydro-1,6-naphthyridin-3-yl)-2-fluorophenyl)-3-(naphthalen-1-yl)urea] are > 8.00 and > 8.00.
The corresponding values for `CCn1c(=O)c(-c2cc(NC(=O)Nc3cccc(F)c3)c(F)cc2C)cc2cnc(NC)cc21` [Example 44, 1-(5-(1-ethyl-7-(methylamino)-2-oxo-1,2-dihydro-1,6-naphthyridin-3-yl)-2-fluoro-4-methylphenyl)-3-(3-fluorophenyl)urea] are > 8.00 and 7.00 to 8.00.
As for `CCn1c(=O)c(-c2cc(NC(=O)Nc3cccc(F)c3)c(F)cc2C)cc2cnc(N)cc21` [Example 58, 1-(5-(7-amino-1-ethyl-2-oxo-1,2-dihydro-1,6-naphthyridin-3-yl)-2-fluoro-4-methylphenyl)-3-(3-fluorophenyl)urea], the pIC50 in assay [1] is 7.00 to 8.00; in assay [2], 6.00 to 7.00.
The corresponding values for `CCn1c(=O)c(-c2cc(NC(=O)Nc3ccccc3)c(F)cc2C)cc2cnc(NC(=O)N(C)C)cc21` [Example 101, 3-(1-ethyl-3-(4-fluoro-2-methyl-5-(3-phenylureido)phenyl)-2-oxo-1,2-dihydro-1,6-naphthyridin-7-yl)-1,1-dimethylurea] are 7.00 to 8.00 and < 6.00.
The corresponding values for `CCn1c(=O)c(-c2cc(NC(=O)Nc3ccccc3)c(F)cc2Cl)cc2cnc(NC(=O)OC)cc21` [Example 73, methyl (3-(2-chloro-4-fluoro-5-(3-phenylureido)phenyl)-1-ethyl-2-oxo-1,2-dihydro-1,6-naphthyridin-7-yl)carbamate] are 7.00 to 8.00 and 7.00 to 8.00.
The corresponding values for `CCn1c(=O)c(-c2cc(NC(=O)Nc3cc(F)ccc3F)c(F)cc2Cl)cc2cnc(NC)cc21` [Example 68, 1-(4-chloro-5-(1-ethyl-7-(methylamino)-2-oxo-1,2-dihydro-1,6-naphthyridin-3-yl)-2-fluorophenyl)-3-(2,5-difluorophenyl)urea] are 7.00 to 8.00 and 6.00 to 7.00.
Turning to `CNc1cc2c(cn1)cc(-c1cc(NC(=O)Nc3ccccc3)c(F)cc1Cl)c(=O)n2C(C)C` [Example 22, 1-(4-chloro-2-fluoro-5-(1-isopropyl-7-(methylamino)-2-oxo-1,2-dihydro-1,6-naphthyridin-3-yl)phenyl)-3-phenylurea], the pIC50 in assay [1] and in assay [2] was 7.00 to 8.00 throughout.
Turning to `CCn1c(=O)c(-c2cc(NC(=O)Nc3cc(F)cc(F)c3)c(F)cc2F)cc2cnc(NC)cc21` [Example 63], the pIC50 in assay [1] was 7.00 to 8.00; in assay [2], 6.00 to 7.00.
The corresponding values for `CCn1c(=O)c(-c2cc(NC(=O)Nc3ccccc3)c(F)cc2Cl)cc2cnc(NC(=O)N3CC[C@@H](N(C)C)C3)cc21` [Example 84, (R)—N-(3-(2-chloro-4-fluoro-5-(3-phenylureido)phenyl)-1-ethyl-2-oxo-1,2-dihydro-1,6-naphthyridin-7-yl)-3-(dimethylamino)pyrrolidine-1-carboxamide] are 7.00 to 8.00 and 7.00 to 8.00.
Take `CCn1c(=O)c(-c2cc(NC(=O)Nc3ccc(F)c(CN4CCN(C)CC4)c3)c(F)cc2Cl)cc2cnc(NC)cc21` [Example 87]: the figures for the pIC50 in assay [1] and in assay [2] were 6.00 to 7.00 and 7.00 to 8.00, respectively.
The corresponding values for `CCn1c(=O)c(-c2cc(NC(=O)Nc3ccccc3)c(F)cc2Cl)cc2cnc(NC(C)=O)cc21` [Example 54, 1-(5-(7-acetamido-1-ethyl-2-oxo-1,2-dihydro-1,6-naphthyridin-3-yl)-4-chloro-2-fluorophenyl)-3-phenylurea] are 7.00 to 8.00 and 7.00 to 8.00.
The corresponding values for `CNc1cc2c(cn1)cc(-c1cc(NC(=O)Nc3cccc(F)c3)c(F)cc1C)c(=O)n2C(C)C` [Example 41, 1-(2-fluoro-5-(1-isopropyl-7-(methylamino)-2-oxo-1,2-dihydro-1,6-naphthyridin-3-yl)-4-methylphenyl)-3-(3-fluorophenyl)urea] are 7.00 to 8.00 and 6.00 to 7.00.
The corresponding values for `CCn1c(=O)c(-c2cc(NC(=O)Nc3cc(F)ccc3F)c(F)cc2C)cc2cnc(NC)cc21` [Example 61, 1-(2,5-difluorophenyl)-3-(5-(1-ethyl-7-(methylamino)-2-oxo-1,2-dihydro-1,6-naphthyridin-3-yl)-2-fluoro-4-methylphenyl)urea] are 7.00 to 8.00 and < 6.00.
For `CCn1c(=O)c(-c2cc(NC(=O)Nc3cccc4ccccc34)c(F)cc2C)cc2cnc(NC)cc21` [Example 1, 1-(5-(1-ethyl-7-(methylamino)-2-oxo-1,2-dihydro-1,6-naphthyridin-3-yl)-2-fluoro-4-methylphenyl)-3-(naphthalen-1-yl)urea], the values for the pIC50 in assay [1] and in assay [2] were > 8.00 and 7.00 to 8.00, respectively.
The corresponding values for `CCn1c(=O)c(-c2cc(NC(=O)Nc3cccc(F)c3)c(F)cc2Cl)cc2cnc(NCCOC)cc21` [Example 28, 1-(4-chloro-5-(1-ethyl-7-(2-methoxyethylamino)-2-oxo-1,2-dihydro-1,6-naphthyridin-3-yl)-2-fluorophenyl)-3-(3-fluorophenyl)urea] are 7.00 to 8.00 and 6.00 to 7.00.
As to `CCn1c(=O)c(-c2cc(NC(=O)Nc3ccccc3)c(F)cc2Cl)cc2cnc(NCCOC)cc21` [Example 27, 1-(4-chloro-5-(1-ethyl-7-(2-methoxyethylamino)-2-oxo-1,2-dihydro-1,6-naphthyridin-3-yl)-2-fluorophenyl)-3-phenylurea], the pIC50 in assay [1] and in assay [2] was 7.00 to 8.00 each time.
Regarding `CCn1c(=O)c(-c2cc(NC(=O)Nc3ccccc3)c(F)cc2C)cc2cnc(NC(=O)N3CCC3)cc21` [Example 110, N-(1-ethyl-3-(4-fluoro-2-methyl-5-(3-phenylureido)phenyl)-2-oxo-1,2-dihydro-1,6-naphthyridin-7-yl)azetidine-1-carboxamide], the pIC50 in assay [2] was > 8.00.
With `CCn1c(=O)c(-c2cc(NC(=O)Nc3ccccc3)ccc2Cl)cc2cnc(NC)cc21` [Example 33, 1-(4-chloro-3-(1-ethyl-7-(methylamino)-2-oxo-1,2-dihydro-1,6-naphthyridin-3-yl)phenyl)-3-phenylurea], the pIC50 in assay [1] was 7.00 to 8.00.
